We go through one substance from US20200405794A1, “PHARMACEUTICAL COMPOSITION FOR PREVENTING OR TREATING CANCER […] AND H[…] EFFECTIVE COMPONENTS” (priority 2018, published 2020).

Data set [1] concerns 4T1 cancer cell line-implanted mice. In words: 4T1 I: tumor size in mouse breast cancer cell-implanted mice. The note with it: 10 days; OTS-412 1×10^7 pfu intratumorally once; hydroxyurea 30 mg/kg intraperitoneally once a day; n=4. The class given is in vivo, Balb/c mice.
For data set [2] the test system is unchanged. In words: 4T1 III: tumor size and survival with high-dose hydroxyurea. The class given is in vivo, Balb/c mice. The note with it: 17 days; OTS-412 1×10^7 pfu intratumorally once; high-dose hydroxyurea 90 mg/kg intraperitoneally once a day.
Data set [3] has as its system NCI-H460 lung cancer cells-implanted mice. In words: Tumor size in human lung cancer cell (NCI-H460)-implanted mice. The class given is in vivo, Balb/c nu/nu mice. The note with it: day 15; OTS-412 1×10^5 pfu twice (5 days apart); hydroxyurea 20 mg/kg once daily.
Data set [4] relates to HCT-116 cancer cell line-implanted mice. In words: Tumor size in human colorectal cancer cell (HCT-116)-implanted mice. In kind it is in vivo, Balb/c nu/nu mice. The note with it: day 28; hydroxyurea only, once daily; n=5.
For data set [5] the following is noted: day 21; OTS-412 1×10^7 pfu twice or hydroxyurea 30 mg/kg, each alone; n=10.

With hydroxyurea, the tumor size increase in data set [1] is recorded as about 5 times; in data set [2], about 3.5 times; in data set [3] it was 9 times; in data set [4], 11 times. Moreover, the body weight loss result in data set [5] was “around 10%”.
